Measurements published in the NIST ThermoML archive (doi:10.1021/acs.jced.7b00242).
Numbers after ± are expanded uncertainties.

How the values were obtained:
[1] = refractive index (Na D-line) (dimensionless)
[2] = 293.15 K; 101 kPa; Liquid; Vibrating tube method
[3] = 298.15 K; 101 kPa; Liquid; Concentric cylinders viscometry
[4] = 298.15 K; 101 kPa; Liquid; Vibrating tube method
[5] = 298.15 K; Liquid; Ring tensiometer
[6] = 303.15 K; 101 kPa; Liquid; Concentric cylinders viscometry
[7] = 303.15 K; 101 kPa; Liquid; Vibrating tube method
[8] = 303.15 K; Liquid; Ring tensiometer
[9] = 313.15 K; 101 kPa; Liquid; Concentric cylinders viscometry
[10] = 313.15 K; 101 kPa; Liquid; Vibrating tube method
[11] = 313.15 K; Liquid; Ring tensiometer
[12] = 323.15 K; 101 kPa; Liquid; Concentric cylinders viscometry
[13] = 323.15 K; 101 kPa; Liquid; Vibrating tube method
[14] = 323.15 K; Liquid; Ring tensiometer
[15] = 333.15 K; 101 kPa; Liquid; Concentric cylinders viscometry
[16] = 333.15 K; 101 kPa; Liquid; Vibrating tube method
[17] = 333.15 K; Liquid; Ring tensiometer
[18] = 343.15 K; 101 kPa; Liquid; Concentric cylinders viscometry
[19] = 343.15 K; 101 kPa; Liquid; Vibrating tube method
[20] = 343.15 K; Liquid; Ring tensiometer
[21] = 353.15 K; 101 kPa; Liquid; Concentric cylinders viscometry
[22] = 353.15 K; 101 kPa; Liquid; Vibrating tube method
[23] = 353.15 K; Liquid; Ring tensiometer
[24] = 363.15 K; 101 kPa; Liquid; Concentric cylinders viscometry
[25] = 363.15 K; 101 kPa; Liquid; Vibrating tube method
[26] = 363.15 K; Liquid; Ring tensiometer
[27] = 293.15 K; 101 kPa; Liquid; Standard Abbe refractometry
[28] = 298.15 K; 101 kPa; Liquid; Standard Abbe refractometry
[29] = 303.15 K; 101 kPa; Liquid; Standard Abbe refractometry
[30] = 313.15 K; 101 kPa; Liquid; Standard Abbe refractometry
[31] = 323.15 K; 101 kPa; Liquid; Standard Abbe refractometry
[32] = 333.15 K; 101 kPa; Liquid; Standard Abbe refractometry
[33] = 343.15 K; 101 kPa; Liquid; Standard Abbe refractometry
[34] = 353.15 K; 101 kPa; Liquid; Standard Abbe refractometry
[35] = 363.15 K; 101 kPa; Liquid; Standard Abbe refractometry

SMILES	mass density [4] [kg/m3]	mass density [7] [kg/m3]	surface tension liquid-gas [8] [mN/m]	viscosity [9] [mPa·s]	mass density [10] [kg/m3]	surface tension liquid-gas [11] [mN/m]	viscosity [12] [mPa·s]	mass density [13] [kg/m3]	surface tension liquid-gas [14] [mN/m]	viscosity [15] [mPa·s]	mass density [16] [kg/m3]	surface tension liquid-gas [17] [mN/m]	viscosity [18] [mPa·s]	mass density [19] [kg/m3]	surface tension liquid-gas [20] [mN/m]	viscosity [21] [mPa·s]	mass density [22] [kg/m3]	surface tension liquid-gas [23] [mN/m]	mass density [25] [kg/m3]	Normal melting temperature (Crystal; DTA) [°C]	further results
CCCCCCCCCCCCn1cc[n+](C)c1.O=S(=O)([N-]S(=O)(=O)C(F)(F)F)C(F)(F)F	1248 ± 20	1242 ± 20	27.7 ± 0.9	63.54 ± 10	1232.2 ± 20	26.9 ± 0.9	42.41 ± 6.8	1224.1 ± 20	25.9 ± 0.9	29.67 ± 4.8	1216 ± 20	24.9 ± 0.9	21.63 ± 3.5	1208.1 ± 20	24.1 ± 0.9	16.31 ± 2.6	1200 ± 20	23.3 ± 0.9	1191.8 ± 20	22.50 ± 1.1	mass density [2]: 1253.1 ± 20 kg/m3; viscosity [3]: 130.5 ± 21 mPa·s; surface tension liquid-gas [5]: 28.1 ± 0.9 mN/m; viscosity [6]: 101.1 ± 16 mPa·s; viscosity [24]: 12.65 ± 2 mPa·s; surface tension liquid-gas [26]: 22.5 ± 0.9 mN/m; refractive index [1, 27]: 1.4385 ± 0.004; refractive index [1, 28]: 1.437 ± 0.004; refractive index [1, 29]: 1.4354 ± 0.004; refractive index [1, 30]: 1.4324 ± 0.004; refractive index [1, 31]: 1.4295 ± 0.004; refractive index [1, 32]: 1.4265 ± 0.004; refractive index [1, 33]: 1.4237 ± 0.004; refractive index [1, 34]: 1.4209 ± 0.004; refractive index [1, 35]: 1.4179 ± 0.004
CCCCCCCCCCn1cc[n+](C)c1.O=S(=O)([N-]S(=O)(=O)C(F)(F)F)C(F)(F)F	1278.4 ± 20	1274.2 ± 20	29.2 ± 0.9	50.86 ± 8.1	1265.3 ± 20	28.3 ± 0.9	34.51 ± 5.5	1256.3 ± 20	27.5 ± 0.9	24.5 ± 3.9	1247.5 ± 20	26.9 ± 0.9	18.08 ± 2.9	1239.4 ± 20	26.3 ± 0.9	13.78 ± 2.2	1230.6 ± 20	25.7 ± 0.9	1222.3 ± 20	3.04 ± 1.1	mass density (273.15 K; 101 kPa; Liquid; Vibrating tube method): 1292.7 ± 20 kg/m3; mass density (289.15 K; 101 kPa; Liquid; Vibrating tube method): 1287.3 ± 20 kg/m3; viscosity (293.15 K; 101 kPa; Liquid; Concentric cylinders viscometry): 139.9 ± 22 mPa·s; mass density [2]: 1282.3 ± 20 kg/m3; viscosity [3]: 101.2 ± 16 mPa·s; surface tension liquid-gas [5]: 29.8 ± 0.9 mN/m; viscosity [6]: 79.17 ± 13 mPa·s; viscosity [24]: 10.79 ± 1.7 mPa·s; surface tension liquid-gas [26]: 25.2 ± 0.9 mN/m; refractive index [1, 27]: 1.4366 ± 0.004; refractive index [1, 28]: 1.4351 ± 0.004; refractive index [1, 29]: 1.4336 ± 0.004; refractive index [1, 30]: 1.4306 ± 0.004; refractive index [1, 31]: 1.4278 ± 0.004; refractive index [1, 32]: 1.425 ± 0.004; refractive index [1, 33]: 1.4222 ± 0.004; refractive index [1, 34]: 1.4194 ± 0.004; refractive index [1, 35]: 1.4166 ± 0.004
CCCCCCCCCCCCCCn1cc[n+](C)c1.O=S(=O)([N-]S(=O)(=O)C(F)(F)F)C(F)(F)F		1197.1 ± 20		83.54 ± 13	1187.6 ± 20		54.36 ± 8.7	1180 ± 20		37.21 ± 6	1171.3 ± 20		26.58 ± 4.3	1163.1 ± 20		19.68 ± 3.1	1154.6 ± 20		1146.5 ± 20	34.4 ± 1.1	surface tension liquid-gas (303.15 K; Metastable liquid; Ring tensiometer): 26.3 ± 0.9 mN/m; surface tension liquid-gas (313.15 K; Ring tensiometer; Liquid): 25.3 ± 0.9 mN/m; surface tension liquid-gas (323.15 K; Ring tensiometer; Liquid): 24.5 ± 0.9 mN/m; surface tension liquid-gas (333.15 K; Ring tensiometer; Liquid): 23.7 ± 0.9 mN/m; surface tension liquid-gas (343.15 K; Ring tensiometer; Liquid): 22.9 ± 0.9 mN/m; surface tension liquid-gas (353.15 K; Ring tensiometer; Liquid): 22.3 ± 0.9 mN/m; viscosity [24]: 15.04 ± 2.4 mPa·s; surface tension liquid-gas (363.15 K; Ring tensiometer; Liquid): 21.7 ± 0.9 mN/m; refractive index ([1]; 303.15 K; 101 kPa; Metastable liquid; Standard Abbe refractometry): 1.4384 ± 0.004; refractive index ([1]; 313.15 K; 101 kPa; Standard Abbe refractometry; Liquid): 1.4352 ± 0.004; refractive index ([1]; 323.15 K; 101 kPa; Standard Abbe refractometry; Liquid): 1.4322 ± 0.004; refractive index ([1]; 333.15 K; 101 kPa; Standard Abbe refractometry; Liquid): 1.4292 ± 0.004; refractive index ([1]; 343.15 K; 101 kPa; Standard Abbe refractometry; Liquid): 1.4262 ± 0.004; refractive index ([1]; 353.15 K; 101 kPa; Standard Abbe refractometry; Liquid): 1.4233 ± 0.004; refractive index ([1]; 363.15 K; 101 kPa; Standard Abbe refractometry; Liquid): 1.4204 ± 0.004
CCCCCCCCCCn1cc[n+](C)c1.[Cl-] [1-decyl-3-methylimidazolium chloride]	984 ± 20	979.7 ± 20	34 ± 0.9		974.4 ± 20	30.2 ± 0.9		968.1 ± 20	28.4 ± 0.9		962.4 ± 20	27.8 ± 0.9		956.4 ± 20	27 ± 0.9		950.7 ± 20	26.2 ± 0.9	943.8 ± 20	28.96 ± 1.1	viscosity (313.15 K; 100 kPa; Liquid; Concentric cylinders viscometry): 3716 ± 630 mPa·s; viscosity (323.15 K; 100 kPa; Liquid; Concentric cylinders viscometry): 1613 ± 270 mPa·s; viscosity (333.15 K; 100 kPa; Liquid; Concentric cylinders viscometry): 778.9 ± 130 mPa·s; viscosity (343.15 K; 100 kPa; Liquid; Concentric cylinders viscometry): 411.2 ± 67 mPa·s; viscosity (353.15 K; 100 kPa; Liquid; Concentric cylinders viscometry): 233.7 ± 38 mPa·s; viscosity (363.15 K; 100 kPa; Liquid; Concentric cylinders viscometry): 141.7 ± 23 mPa·s; surface tension liquid-gas [26]: 25.5 ± 0.9 mN/m; refractive index ([1]; 293.15 K; 100 kPa; Liquid; Standard Abbe refractometry): 1.5002 ± 0.0048; refractive index ([1]; 298.15 K; 100 kPa; Liquid; Standard Abbe refractometry): 1.4988 ± 0.0054; refractive index ([1]; 303.15 K; 100 kPa; Liquid; Standard Abbe refractometry): 1.4972 ± 0.0058; refractive index ([1]; 313.15 K; 100 kPa; Liquid; Standard Abbe refractometry): 1.4937 ± 0.0064; refractive index ([1]; 323.15 K; 100 kPa; Liquid; Standard Abbe refractometry): 1.4897 ± 0.0064; refractive index ([1]; 333.15 K; 100 kPa; Liquid; Standard Abbe refractometry): 1.4864 ± 0.0068; refractive index ([1]; 343.15 K; 100 kPa; Liquid; Standard Abbe refractometry): 1.4834 ± 0.0074; refractive index ([1]; 353.15 K; 100 kPa; Liquid; Standard Abbe refractometry): 1.4806 ± 0.0078; refractive index ([1]; 363.15 K; 100 kPa; Liquid; Standard Abbe refractometry): 1.4788 ± 0.009
CCCCCCCCCCCC[n+]1ccn(C)c1.[Cl-] [1-dodecyl-3-methylimidazolium chloride]																				96.22 ± 1.1	
